According to article PMC11124387, “A Reliable Multifaceted Solution against Foodborne Viral Infections: The Case of RiLK1 Decapeptide” (Molecules, 2024):
Where “and” joins values, the source holds several entries; their conditions need not be identical. Equal entries are not always repeated. Where two headings read alike, the source gives them in different places. Where a SMILES comes first, the peptide text is derived from it.

Experiments:
[1] = tested on: Hepatitis A virus (HAV) strain HM-175; conditions: cited from earlier work; for LRV (log reduction value) / Viral Titre after Treatment: RT (20 ± 2 °C), mean ± SD, ref [46] (table footnote; text b35 cites [45])
Text: Table 2 In vitro effect of peptides on HAV. | column: Viral Titre after Treatment (logTCID50/mL ± SD) / RT; LRV (logTCID50/mL ± SD) / RT || In a previous work, the antiviral effects of RiLK1 and RiLK3 were already investigated against hepatitis A virus (HAV) following treatment at room temperature, and the obtained results are reported in Table 2. Briefly, RiLK1 was able to reduce HAV infectivity by more than 1 log in comparison with the untreated virus, displaying a log reduction value (LRV) of 1.4 at 80 μM and 1.1 at 40 μM concentration. […] Therefore, based on these preliminary results, further insights into the virucidal activity ...

[2] = tested on: Hepatitis A virus (HAV) strain HM-175; assay: Cell pre-treatment assay, HAV; assay type: cell-based; conditions: cell pre-treatment: cells with peptide 80 µM 1 h 37 °C, peptide removed, then virus 1 h 37 °C, mean ± SD
Protocol: (§1) Four sets of experiments were performed to suppose the effect of RiLK1 and RiLK3 on HAV and MNV-1 [29]. To this aim, 80 µM solutions of the two peptides and HAV and MNV-1 suspensions at a final concentration of 4.7 ± 0.2 log TCID50/mL and 4.5 ± 0.2 log TCID50/mL, respectively, were used in the following experiments: • i) A virus pre-treatment assay to assess the direct interaction between the virus and peptide: the incubation of the peptide with viral suspension for 1 h at room temperature was carried out, followed by its incubation on cells for 1 h at 37 °C. Then, cell monolayers were washed twice with PBS and incubated with 500 µL DMEM/MEM supplemented with 2% of FBS to determine the TCID50/mL. • ii) A cell pre-treatment assay to assess the interaction between the peptide and cells before the viral infection: cell monolayers were preincubated with 100 µL of peptide solution for 1 h at 37 °C, followed by the removal of the peptide, addition to cells of viral suspensions for 1 h at 37 °C, washing step, and culture with 2% FBS DMEM/MEM. • iii) An attachment assay to assess the possible action of the peptide at the stage of virus attachment to cells: cell monolayers were incubated with 100 µL of a suspension containing both the peptide and virus and were incubated for 1 h at 4 °C. Subsequently, the cell monolayers were washed with PBS and incubated for 1 h at 37 °C with a culture medium followed by a washing step and the addition of culture with 2% FBS DMEM/MEM. • iv) An entry assay to assess the possible action of the peptide at the stage of virus internalization into cells: cell monolayers were incubated with 100 µL of the viral suspension for 1 h at 4 °C, followed by the addition of the peptide and incubation for 1 h at 37 °C. Cells were then washed with PBS, and 2% FBS DMEM/MEM was finally added.
(§2) Untreated viral suspensions and peptide solutions, incubated at the same conditions, were used as controls.
(§3) For each treatment, the average and standard deviation of the triplicate analyses were calculated. The virucidal effects of AMPs was assessed by calculating the log reduction value (LRV), i.e., the difference between the infectious titer (log-transformed) of untreated versus treated samples. The statistical significance of differences between treated and untreated samples was determined through one-way analysis of variance (ANOVA) with Bonferroni post hoc comparisons, with a significance level of p < 0.05 (GraphPad Prism v9.5.0, software San Diego, CA, USA).

[3] = tested on: Hepatitis A virus (HAV) strain HM-175; assay: Attachment assay, HAV; assay type: cell-based; conditions: attachment: cells with peptide 80 µM and virus together 1 h at 4 °C, mean ± SD
Protocol: as §1, §2, §3

[4] = tested on: Murine norovirus strain 1 (MNV-1); assay: Attachment assay, MNV-1; assay type: cell-based; conditions: attachment: cells with peptide 80 µM and virus together 1 h at 4 °C, mean ± SD
Protocol: as §1, §2, §3

[5] = tested on: Hepatitis A virus (HAV) strain HM-175; assay: Virus pre-treatment assay, HAV; assay type: cell-based; conditions: virus pre-treatment: peptide 80 µM with virus 1 h at RT, mean ± SD; for Viral Titre: then on Frp3 cells 1 h 37 °C
Protocol: as §1, with “Subsequently, the cell monolayers were washed with PBS and incubated for 1 h at 37 °C with a culture medium followed by a washing step and the addition of culture with 2% FBS DMEM/MEM. • iv) An entry assay to assess the possible action of the peptide at the stage of virus internalization into cells: cell monolayers were incubated with 100 µL of the viral suspension for 1 h at 4 °C, followed by the addition of the peptide and incubation for 1 h at 37 °C. Cells were then washed with PBS, and 2% FBS DMEM/MEM was finally added.” left out
as §3

[6] = tested on: Campylobacter jejuni; assay type: cell-based; conditions: peptide 40 and 80 µM, 6 h at 37 °C
Text: The monophasic variant of Salmonella Typhimurium, Salmonella Napoli, and Campylobacter jejuni were isolated by the Laboratory of Microbiological Food Control—Department of Food Microbiology of the Istituto Zooprofilattico Sperimentale del Mezzogiorno in Portici (Naples, Italy) in raw and processed foodstuffs of animal origin. Specifically, the monophasic variant of S. Typhimurium and S. Napoli were isolated from bivalve mollusks, while C. jejuni was isolated from poultry meat. Bacterial cells were cultured at 37 °C in the appropriate culture media (S. Typhimurium and S. Napoli in buffered peptone water (Thermo Fisher, Milan, Italy) and C. jejuni in Bolton Broth (Oxoid, Madrid, Spain)) until collection and then diluted in fresh broth to a final concentration of 1.5 × 10^3 colony forming units (CFUs)/mL. Thereafter, peptide stock solutions in DMSO were added to the bacterial suspension at the same concentrations used in the virucidal assays (40 and 80 µM) and incubated at 37 °C for 6 h. Samples containing only cell suspension and DMSO were used as controls. […]

| Compound | LRV (log reduction value) ([1]; HAV + peptide 40 µM) | Viral Titre after Treatment ([1]; HAV + peptide 40 µM) | LRV (log reduction value) ([1]; HAV + peptide 80 µM) | Viral Titre after Treatment ([1]; HAV + peptide 80 µM) | reduction of HAV infectivity in comparison with the untreated virus ([1]; room temperature, ref [45]) | LRV [2] | Viral Titre [2] | LRV [3] | Viral Titre [3] | LRV [4] | Viral Titre [4] | Viral Titre [5] | inhibitory activity against Campylobacter jejuni (in words) [6] | inhibition of HAV infection (in words) ([1]; 40 and 80 µM, room temperature, ref [45]) | LRV ([5]; then on cells 1 h 37 °C) |
| --- | --- | --- | --- | --- | --- | --- | --- | --- | --- | --- | --- | --- | --- | --- | --- |
| CC[C@H](C)[C@H](NC(=O)[C@H](CCCNC(=N)N)NC(=O)[C@@H](NC(=O)[C@H](Cc1c[nH]c2ccccc12)NC(=O)[C@H](CCCCN)NC(=O)[C@H](CC(C)C)NC(=O)[C@@H](N)CCCNC(=N)N)C(C)C)C(=O)N[C@@H](Cc1c[nH]c2ccccc12)C(=O)N[C@@H](CCCNC(=N)N)C(=O)N[C@@H](CCCNC(=N)N)C(N)=O [RiLK1] (H-RLKWVRIWRR-NH2; N-terminus assumed) | 1.1 logTCID50/mL and 1.1 ± 0.3 *^,a logTCID50/mL | 3.6 ± 0.1 *^,a logTCID50/mL | 1.4 logTCID50/mL and 1.4 ± 0.4 *^,a logTCID50/mL | 3.3 ± 0.2 *^,a logTCID50/mL | more than 1 log | 0.1 ± 0.3 logTCID50/mL | 4.6 ± 0.1 logTCID50/mL | 1.4 logTCID50/mL and 1.4 ± 0.4 logTCID50/mL | 3.3 ± 0.2 logTCID50/mL | 1.4 logTCID50/mL and 1.4 ± 0.4 logTCID50/mL | 3.1 ± 0.2 logTCID50/mL | 3.3 ± 0.2 logTCID50/mL | – | – | – |
| KLRWVKIWKK-NH2 [RiLK30, newly designed RiLK1 derivative, Arg residues exchanged with Lys and Lys3 with Arg] | – | – | – | – | – | – | – | – | – | – | – | – | the most ineffective | – | – |
| RLRWVRIWRR-NH2 [RiLK3, RiLK1 analog differing by one amino acid (Lys replaced with Arg), C-terminally amidated] | 0.3 ± 0.3 ^a logTCID50/mL | 4.4 ± 0.1 ^a logTCID50/mL | 0.3 ± 0.3 ^a logTCID50/mL | 4.4 ± 0.1 ^a logTCID50/mL | – | 0.9 logTCID50/mL and 0.9 ± 0.4 logTCID50/mL | 3.8 ± 0.2 logTCID50/mL | 1.0 logTCID50/mL and 1.0 ± 0.4 logTCID50/mL | 3.7 ± 0.2 logTCID50/mL | 1.0 logTCID50/mL and 1.0 ± 0.3 logTCID50/mL | 3.5 ± 0.1 logTCID50/mL | 4.4 ± 0.1 logTCID50/mL | – | unable to inhibit HAV infection | 0.3 ± 0.3 logTCID50/mL |
